# Legend:
# ducksalad [1] = test: Test C flooded paddy test; assay type: in vivo, Heteranthera limosa; conditions: for Plant response rating, Ducksalad: 500 g ai/ha, visual rating after 12 to 14 days
# blackgrass = test: Test B postemergence herbicide test; assay type: in vivo, Alopecurus myosuroides
# In short: (§1)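 After treating 2-leaf paddy plants or 2–18 cm postemergence plants (1 to 4 leaves) with formulated chemical, researchers kept them in a greenhouse for 13–15 days. Effects were judged visually versus controls: 0 indicates none, 100 total control.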
# pigweed = test: Test B pre-/postemergence herbicide test; assay type: in vivo, Amaranthus retroflexus
# In short: (§2)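 Seeds were planted and treated preemergence with compounds formulated in a non-phytotoxic solvent mixture containing surfactant, while plants at the 1- to 4-leaf stage (2 to 18 cm) received postemergence sprays. Flooded paddy plants were grown to the 2-leaf stage. After 13 to 15 days in a greenhouse, injury was visually rated 0–100 against untreated controls.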
# corn = test: Test B pre-/postemergence herbicide test; assay type: in vivo, Zea mays
# In short: as §2
# rice [2] = test: Test C flooded paddy test; assay type: in vivo, Oryza sativa; conditions: for Plant response rating, Rice: 500 g ai/ha, visual rating after 12 to 14 days
# In short: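 Postemergence sprays applied to plants 2 to 18 cm tall (1- to 4-leaf stage); paddy species grown to 2-leaf stage under flooding. After 12 to 14 days in greenhouse, visual rating versus untreated controls on 0–100 scale (0 no effect, 100 complete control).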
# Surinam grass = test: Test B pre-/postemergence herbicide test; assay type: in vivo, Urochloa decumbens
# In short: as §2
# barnyardgrass [3] = test: Test B flooded paddy test; assay type: in vivo, Echinochloa crus-galli; conditions: 1000 g ai/ha, scale 0 to 100 (0 no effect, 100 complete control)
# In short: as §1
# rice [4] = test: Test B flooded paddy test; assay type: in vivo, Oryza sativa; conditions: 1000 g ai/ha, scale 0 to 100 (0 no effect, 100 complete control)
# In short: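 Visual ratings, 0 (no effect) to 100 (complete control), made versus controls after 13–15 d greenhouse. Paddy plants treated at 2-leaf stage; postemergence plants at 1- to 4-leaf stage, 2–18 cm tall.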
# [5] = system: smallflower umbrella sedge; test: Test C flooded paddy test; assay type: in vivo, Cyperus difformis; conditions: for Plant response rating, Sedge, Umbrella: 500 g ai/ha, visual rating after 12 to 14 days
# cocklebur = test: Test B pre-/postemergence herbicide test; assay type: in vivo, Xanthium strumarium
# In short: (§3)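 Flooded paddy rice and barnyardgrass were treated at the 2-leaf stage; upland plantings received compound either on sown seed or on 1- to 4-leaf seedlings. All were kept 13–15 days in a greenhouse and scored visually, 0–100, relative to untreated plants.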
# velvetleaf = test: Test B pre-/postemergence herbicide test; assay type: in vivo, Abutilon theophrasti
# In short: as §2
# [6] = system: small flower umbrella sedge; test: Test B flooded paddy test; assay type: in vivo, Cyperus difformis; conditions: 1000 g ai/ha, scale 0 to 100 (0 no effect, 100 complete control)
# In short: as §1
# wheat = test: Test B postemergence herbicide test; assay type: in vivo, Triticum aestivum; parameters: key to Wheat plant response rating: 0 = no effect, 100 = complete control
# In short: as §1
# giant foxtail = test: Test B pre-/postemergence herbicide test; assay type: in vivo, Setaria faberi
# In short: as §2
# lambsquarters = test: Test B pre-/postemergence herbicide test; assay type: in vivo, Chenopodium album
# In short: as §2
# ducksalad [7] = test: Test B flooded paddy test; assay type: in vivo, Heteranthera limosa; conditions: 1000 g ai/ha, scale 0 to 100 (0 no effect, 100 complete control)
# In short: as §1
# large crabgrass = test: Test B pre-/postemergence herbicide test; assay type: in vivo, Digitaria sanguinalis
# In short: as §2
# barnyardgrass [8] = test: Test B pre-/postemergence herbicide test; assay type: in vivo, Echinochloa crus-galli
# In short: as §3
# wild oat = test: Test B postemergence herbicide test; assay type: in vivo, Avena fatua; conditions: scale 0 (no effect) to 100 (complete control)
# In short: as §1
# morningglory = test: Test B pre-/postemergence herbicide test; assay type: in vivo, Ipomoea coccinea
# In short: as §3
# barnyardgrass [9] = test: Test C flooded paddy test; assay type: in vivo, Echinochloa crus-galli; conditions: for Plant response rating, Barnyardgrass: 500 g ai/ha, visual rating after 12 to 14 days
# In short: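 Weeds and wheat were sprayed after emergence, at a height of 2 to 18 cm (1–4 leaves), and paddy barnyardgrass was flooded and treated at two leaves. Assessment took place 12–14 days later in the greenhouse on a 0-to-100 visual control scale. A dash means no result was obtained.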
# [10] = 62 g ai/ha, scale 0 to 100 (0 no effect, 100 complete control)
# [11] = 125 g ai/ha, scale of 0 to 100, 0 is no effect, 100 is complete control
# [12] = 250 g ai/ha, scale of 0 to 100, 0 is no effect, 100 is complete control
# [13] = scale 0 to 100 (0 no effect, 100 complete control)
# [14] = Postemergence, 500 g ai/ha; visual rating after 13 to 15 days, scale 0 (no effect) to 100 (complete control)
# [15] = postemergence, 125 g ai/ha; visual rating, scale 0 (no effect) to 100 (complete control)
# [16] = 500 g ai/ha, visual rating 0-100, 0 no effect, 100 complete control, preemergence
# [17] = Postemergence, 500 g ai/ha, visual rating after 13 to 15 days, scale 0 (no effect) to 100 (complete control)
# [18] = postemergence, 125 g ai/ha, visual rating, scale 0 (no effect) to 100 (complete control)
# [19] = preemergence, 125 g ai/ha, 0 to 100 scale, 0 is no effect, 100 is complete control
# [20] = 500 g ai/ha; visual rating 0-100, 0 no effect, 100 complete control; preemergence
# [21] = preemergence, 125 g ai/ha; 0 to 100 scale, 0 is no effect, 100 is complete control
# [22] = 125 g ai/ha, scale 0 to 100 (0 no effect, 100 complete control)
# [23] = 125 g ai/ha; visual rating, scale 0 (no effect) to 100 (complete control); postemergence
# [24] = postemergence, 500 g ai/ha; scale 0 to 100, 0 is no effect, 100 is complete control
# [25] = 125 g ai/ha, 0 is no effect, 100 is complete control, preemergence
# [26] = 125 g ai/ha, visual rating, scale 0 (no effect) to 100 (complete control), postemergence
# [27] = Postemergence, 500 g ai/ha, scale 0 (no effect) to 100 (complete control)
# [28] = 125 g ai/ha; 0 is no effect, 100 is complete control; preemergence
smiles,measurement,setting,value
CON=C(C)c1cccc(NC(=O)c2cc(C(C)(C)C)nn2C)c1 [Compound 106],Ducksalad plant response rating,ducksalad [1]; [10],0
same,Ducksalad plant response rating,ducksalad [1]; [11],0
same,Ducksalad plant response rating,ducksalad [1]; [12],0
same,"Plant response rating, Ducksalad",ducksalad [1]; [13],0
same,"Plant response rating, Blackgrass",blackgrass; [14],0
same,Blackgrass plant response rating,blackgrass; [15],0
same,"Plant response rating, Pigweed",pigweed; [16],70
same,"Plant response rating, Pigweed",pigweed; [17],20
same,Pigweed plant response rating,pigweed; [18],10
same,"Plant response rating, Pigweed",pigweed; [19],0
same,"Plant response rating, Corn",corn; [20],0
same,"Plant response rating, Corn",corn; [14],10
same,Corn plant response rating,corn; [15],10
same,"Plant response rating, Corn",corn; [21],0
same,Rice plant response rating,rice [2]; [10],0
same,Rice plant response rating,rice [2]; [11],0
same,Rice plant response rating,rice [2]; [12],0
same,"Plant response rating, Rice",rice [2]; [13],20
same,"Plant response rating, Surinam Grass",Surinam grass; [16],20
same,"Plant response rating, Surinam Grass",Surinam grass; [17],10
same,Surinam Grass plant response rating,Surinam grass; [18],10
same,"Plant response rating, Surinam Grass",Surinam grass; [19],0
same,Barnyardgrass plant response rating,"barnyardgrass [3]; visual rating, 13 to 15 days",0
same,Rice plant response rating,"rice [4]; visual rating, 13 to 15 days",0
same,"Sedge, Umbrella plant response rating",[5]; [10],0
same,"Sedge, Umbrella plant response rating",[5]; [11],0
same,"Sedge, Umbrella plant response rating",[5]; [12],30
same,"Plant response rating, Sedge, Umbrella",[5]; [13],80
same,"Plant response rating, Cocklebur",cocklebur; [20],0
same,"Plant response rating, Cocklebur",cocklebur; [14],50
same,Cocklebur plant response rating,cocklebur; [15],20
same,"Plant response rating, Cocklebur",cocklebur; [21],0
same,"Plant response rating, Velvetleaf",velvetleaf; [16],0
same,"Plant response rating, Velvetleaf",velvetleaf; [17],20
same,Velvetleaf plant response rating,velvetleaf; [18],0
same,"Plant response rating, Velvetleaf",velvetleaf; [19],0
same,"Sedge, Umbrella plant response rating","[6]; visual rating, 13 to 15 days",90
same,"Plant response rating, Wheat",wheat; [17],0
same,Wheat plant response rating,wheat; [18],0
same,"Plant response rating, Foxtail, Giant",giant foxtail; [20],40
same,"Plant response rating, Foxtail, Giant",giant foxtail; [14],0
same,"Foxtail, Giant plant response rating",giant foxtail; [15],0
same,"Plant response rating, Foxtail, Giant",giant foxtail; [21],10
same,"Plant response rating, Lambsquarters",lambsquarters; [16],100
same,"Plant response rating, Lambsquarters",lambsquarters; [17],90
same,Lambsquarters plant response rating,lambsquarters; [18],50
same,"Plant response rating, Lambsquarters",lambsquarters; [19],0
same,Ducksalad plant response rating,"ducksalad [7]; visual rating, 13 to 15 days",80
same,"Plant response rating, Crabgrass, Large",large crabgrass; [20],100
same,"Plant response rating, Crabgrass, Large",large crabgrass; [14],10
same,"Crabgrass, Large plant response rating",large crabgrass; [15],0
same,"Plant response rating, Crabgrass, Large",large crabgrass; [21],90
same,"Plant response rating, Barnyardgrass",barnyardgrass [8]; [20],70
same,"Plant response rating, Barnyardgrass",barnyardgrass [8]; [14],0
same,Barnyardgrass plant response rating,barnyardgrass [8]; [15],0
same,"Plant response rating, Oat, Wild","wild oat; Postemergence, 500 g ai/ha, visual rating after 13 to 15 days",20
same,"Oat, Wild plant response rating","wild oat; postemergence, 125 g ai/ha, visual rating",10
same,"Plant response rating, Morningglory",morningglory; [16],10
same,"Plant response rating, Morningglory",morningglory; [17],10
same,Morningglory plant response rating,morningglory; [18],10
same,Barnyardgrass plant response rating,barnyardgrass [9]; [10],0
same,Barnyardgrass plant response rating,barnyardgrass [9]; [11],0
same,Barnyardgrass plant response rating,barnyardgrass [9]; [12],0
same,"Plant response rating, Barnyardgrass",barnyardgrass [9]; [13],0
Cc1nn(C(C)(C)C)nc1C(=O)Nc1cc(C(=O)N(C)C)ccc1F [Compound 378],Ducksalad plant response rating,"ducksalad [1]; 62 g ai/ha, scale 0 to 100",0
same,Ducksalad plant response rating,ducksalad [1]; [22],0
same,Ducksalad plant response rating,ducksalad [1]; [12],20
same,"Plant response rating, Ducksalad",ducksalad [1]; [13],75
same,Blackgrass plant response rating,blackgrass; [23],0
same,Blackgrass plant response rating,blackgrass; [24],0
same,"Plant response rating (0 to 100 scale), Pigweed",pigweed; [25],90
same,Pigweed plant response rating,pigweed; [26],40
same,Pigweed plant response rating,pigweed; [27],70
same,"Plant response rating (0 to 100 scale), Corn",corn; [28],30
same,Corn plant response rating,corn; [23],0
same,Corn plant response rating,corn; [24],10
same,Rice plant response rating,"rice [2]; 62 g ai/ha, scale 0 to 100",0
same,Rice plant response rating,rice [2]; [22],10
same,Rice plant response rating,rice [2]; [12],30
same,"Plant response rating, Rice",rice [2]; [13],60
same,"Plant response rating (0 to 100 scale), Surinam Grass",Surinam grass; [25],0
same,Surinam Grass plant response rating,Surinam grass; [26],10
same,Surinam Grass plant response rating,Surinam grass; [27],20
same,Barnyardgrass plant response rating,barnyardgrass [3],80
same,Rice plant response rating,rice [4],70
same,"Sedge, Umbrella plant response rating","[5]; 62 g ai/ha, scale 0 to 100",0
same,"Sedge, Umbrella plant response rating",[5]; [22],15
same,"Sedge, Umbrella plant response rating",[5]; [12],55
same,"Plant response rating, Sedge, Umbrella",[5]; [13],80
same,"Plant response rating (0 to 100 scale), Cocklebur",cocklebur; [28],0
same,Cocklebur plant response rating,cocklebur; [23],0
same,Cocklebur plant response rating,cocklebur; [24],0
same,"Plant response rating (0 to 100 scale), Velvetleaf",velvetleaf; [25],50
same,Velvetleaf plant response rating,velvetleaf; [26],10
same,Velvetleaf plant response rating,velvetleaf; [27],40
same,"Sedge, Umbrella plant response rating",[6],80
same,Wheat plant response rating,wheat; [26],0
same,Wheat plant response rating,"wheat; 500 g ai/ha, scale 0 to 100, 0 no effect, 100 complete control, preemergence",100
same,Wheat plant response rating,wheat; [27],0
same,"Plant response rating (0 to 100 scale), Foxtail, Giant",giant foxtail; [28],30
same,"Foxtail, Giant plant response rating",giant foxtail; [23],0
same,"Foxtail, Giant plant response rating",giant foxtail; [24],30
same,"Plant response rating (0 to 100 scale), Lambsquarters",lambsquarters; [25],90
same,Lambsquarters plant response rating,lambsquarters; [26],40
same,Lambsquarters plant response rating,lambsquarters; [27],70
same,Ducksalad plant response rating,ducksalad [7],90
same,"Crabgrass, Large plant response rating",large crabgrass; [23],0
same,"Crabgrass, Large plant response rating",large crabgrass; [24],10
same,"Plant response rating (0 to 100 scale), Barnyardgrass",barnyardgrass [8]; [28],30
same,Barnyardgrass plant response rating,barnyardgrass [8]; [23],0
same,Barnyardgrass plant response rating,barnyardgrass [8]; [24],0
same,"Oat, Wild plant response rating","wild oat; 125 g ai/ha, visual rating, postemergence",0
same,"Oat, Wild plant response rating","wild oat; Postemergence, 500 g ai/ha",20
same,"Plant response rating (0 to 100 scale), Morningglory",morningglory; [25],0
same,Morningglory plant response rating,morningglory; [26],20
same,Morningglory plant response rating,morningglory; [27],30
same,Barnyardgrass plant response rating,barnyardgrass [9]; [10],0
same,Barnyardgrass plant response rating,barnyardgrass [9]; [22],0
same,Barnyardgrass plant response rating,barnyardgrass [9]; [12],0
same,"Plant response rating, Barnyardgrass",barnyardgrass [9]; [13],50

# Source: patent US20060069132A1, “Azolecarboxamide herbicides” (priority 2004, published 2006)
